38 compounds from patent US20090111801A1, “SUBSTITUTED PYRAZINONE DERIVATIVES FOR USE AS A MEDICINE” (Janssen Pharmaceutica N.V., priority 2006, published 2009) can be followed below.

Experiment [1] deals with T1, 5HT-Transporter (Homo sapiens, UniProt P31645).
T1 construct: Human platelet membranes (Oceanix Biosciences Corporation, Hanover, Md., USA) were thawed; tissue Oceanix Biosciences Corporation, Hanover, Md., USA; host or cells: human platelet membranes
As to the kind of experiment: Binding experiment for the 5HT-transporter ([3H]paroxetine, human platelet membranes). As to conditions: [3H]paroxetine 0.5 nM; for IC50: read-out: h-5HTT pIC50 (converted). The procedure, abridged: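 Filter-bound radioactivity from human platelet membranes incubated with [3H]paroxetine and test compound (buffer Tris-HCl 50 mM, 120 mM NaCl, 5 mM KCl) was counted.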

The target in experiment [2] is T2, hα2A receptor (Homo sapiens, UniProt P08913).
T2 construct: expressed in transfected cells; host or cells: CHO cells, stably transfected; membrane preparation
T2 sequence (P08913 1-465): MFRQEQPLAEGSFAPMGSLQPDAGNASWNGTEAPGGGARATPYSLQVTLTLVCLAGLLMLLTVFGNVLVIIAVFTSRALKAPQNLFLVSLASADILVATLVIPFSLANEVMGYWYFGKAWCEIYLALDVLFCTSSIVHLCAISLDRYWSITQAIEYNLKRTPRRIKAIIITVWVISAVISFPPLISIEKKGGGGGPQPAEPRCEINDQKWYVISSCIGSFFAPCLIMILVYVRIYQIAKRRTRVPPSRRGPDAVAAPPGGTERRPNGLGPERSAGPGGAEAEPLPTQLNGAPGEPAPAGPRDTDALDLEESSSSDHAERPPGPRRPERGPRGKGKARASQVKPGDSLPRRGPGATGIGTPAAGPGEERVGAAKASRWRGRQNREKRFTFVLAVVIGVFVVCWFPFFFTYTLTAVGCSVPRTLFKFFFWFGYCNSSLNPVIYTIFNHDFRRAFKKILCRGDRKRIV
Put plainly: Radioligand binding experiment for α2A-adrenoceptor ([3H]raulwolscine, CHO cell membranes). As to conditions: [3H]raulwolscine binding; for IC50: read-out: h-α2A pIC50 (converted).

For experiment [3], the target named is T3, hα2C receptor (Homo sapiens, UniProt P18825).
T3 construct: expressed in transfected cells; host or cells: CHO cells, stably transfected; membrane preparation
T3 sequence (P18825 1-462): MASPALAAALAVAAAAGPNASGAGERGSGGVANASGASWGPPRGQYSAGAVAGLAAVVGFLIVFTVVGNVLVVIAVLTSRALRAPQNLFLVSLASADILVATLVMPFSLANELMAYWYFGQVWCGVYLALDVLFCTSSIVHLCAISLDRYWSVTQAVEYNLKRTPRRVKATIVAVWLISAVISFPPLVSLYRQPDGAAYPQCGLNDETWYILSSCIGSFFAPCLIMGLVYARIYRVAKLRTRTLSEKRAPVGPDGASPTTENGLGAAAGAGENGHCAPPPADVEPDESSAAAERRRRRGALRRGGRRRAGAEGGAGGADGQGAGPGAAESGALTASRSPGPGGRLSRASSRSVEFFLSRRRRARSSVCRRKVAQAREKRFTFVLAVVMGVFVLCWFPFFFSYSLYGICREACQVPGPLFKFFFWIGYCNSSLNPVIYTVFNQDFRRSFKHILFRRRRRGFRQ
Put plainly: Radioligand binding experiment for α2C-adrenoceptor ([3H]raulwolscine, CHO cell membranes). To be noted: [3H]raulwolscine binding; for IC50: read-out: h-α2C pIC50 (converted).

Each structure is given as a SMILES string.

T1 sequence (P31645 whole entry): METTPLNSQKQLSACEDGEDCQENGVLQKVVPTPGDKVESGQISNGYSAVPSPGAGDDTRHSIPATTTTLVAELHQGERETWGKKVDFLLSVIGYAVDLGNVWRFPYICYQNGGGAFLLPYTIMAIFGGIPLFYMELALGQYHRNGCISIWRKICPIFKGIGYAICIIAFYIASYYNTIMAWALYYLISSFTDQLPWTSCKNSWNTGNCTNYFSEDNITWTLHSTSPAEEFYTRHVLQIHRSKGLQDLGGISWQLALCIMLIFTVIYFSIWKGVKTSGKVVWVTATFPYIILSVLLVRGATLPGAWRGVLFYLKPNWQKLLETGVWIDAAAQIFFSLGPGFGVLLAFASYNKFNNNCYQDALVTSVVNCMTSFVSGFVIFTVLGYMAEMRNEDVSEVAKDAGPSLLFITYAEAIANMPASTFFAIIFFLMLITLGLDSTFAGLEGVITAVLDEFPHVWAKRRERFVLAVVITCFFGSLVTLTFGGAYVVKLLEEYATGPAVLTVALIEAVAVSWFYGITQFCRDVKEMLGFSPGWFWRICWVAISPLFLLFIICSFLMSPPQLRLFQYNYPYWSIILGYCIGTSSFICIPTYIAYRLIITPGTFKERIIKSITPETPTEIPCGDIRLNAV

Turning to `C/C(=C\c1ccccc1)CN1CCC(Nc2nccn(CC3CCCCC3)c2=O)CC1` [7-6], the IC50 is 1580 nM in experiment [1], 200 nM in experiment [2] and 50.1 nM in experiment [3].
`COc1cccc(Cn2ccnc(NC3CCN(C/C(C)=C/c4ccccc4)CC3)c2=O)c1` [3-10]: the IC50 is 794 nM in experiment [1], 79.4 nM in experiment [2] and 31.6 nM in experiment [3].
As for `C/C(=C\c1ccccc1)CN1CCC(Nc2nccn(CC(=O)N(Cc3ccccc3)c3ccccc3)c2=O)CC1` [1-69], the values for the IC50 in experiment [1], in experiment [2] and in experiment [3] were 794 nM, 158 nM and 39.8 nM, respectively.
With `C/C(=C\c1ccccc1)CN1CCC(Nc2nccn(CCCN(Cc3ccccc3)S(=O)(=O)c3ccccc3)c2=O)CC1` [1-170], the IC50 in experiment [1] is 251 nM; in experiment [2], 200 nM; in experiment [3] it was 12.6 nM.
`C/C(=C\c1ccccc1)CN1CCC(Nc2nccn(-c3ccc(CO)cc3)c2=O)CC1` [3-3]: the “h-5HTT pIC50” value in experiment [1] came to 5.2. Besides, the “h-α2A pIC50” value in experiment [2] is 6.8. Besides, the “h-α2C pIC50” value in experiment [3] was 7.8.
In the case of `O=c1c(NC2CCN(C/C=C/c3ccccc3)CC2)nccn1CC1CCCCO1` (stereo not drawn) [16-19], the IC50 in experiment [1] was 5010 nM; in experiment [2], 1580 nM; in experiment [3], 316 nM.
For `C/C(=C\c1ccccc1)CN1CCC(Nc2nccn(CCCN)c2=O)CC1` [1-1], in that order: 2000 nM, 63.1 nM and 6.31 nM.
On to `C/C(=C\c1ccccc1)CN1CCC(Nc2nccn(-c3ccc(CN4C(=O)c5ccccc5C4=O)cc3)c2=O)CC1` [2-55], for which, in experiment [1], the “h-5HTT pIC50” value came to 6.6. In addition, in experiment [2], the “h-α2A pIC50” value amounted to 6.8. Also, the “h-α2C pIC50” value in experiment [3] stood at 8.0.
Take `C/C(=C\c1ccccc1)CN1CCC(Nc2nccn(-c3ccc(C(=O)NCc4ccc(F)cc4)cc3)c2=O)CC1` [1-56]: the IC50 in experiment [1] is 251 nM; in experiment [2] it was 158 nM; in experiment [3], 15.8 nM.
Taken in the same sequence, the figures for `C/C(=C\c1ccccc1)CN1CCC(Nc2nccn(CC(=O)N(C)CCc3ccccc3)c2=O)CC1` [1-61] were 1260 nM, 100 nM and 6.31 nM.
For `C=CCN1CCN(C(=O)Cn2ccnc(NC3CCN(C/C(C)=C/c4ccccc4)CC3)c2=O)CC1` [2-24], in that order: 5010 nM, 100 nM and 3.16 nM.
As for `CCOC(=O)Cn1ccnc(NC2CCN(C/C(C)=C/c3ccccc3)CC2)c1=O` [3-16], the IC50 in experiment [1] was greater than 10000 nM; in experiment [2], 126 nM; in experiment [3] it was 15.8 nM.
Taken in the same sequence, the figures for `C/C(=C\c1ccccc1)CN1CCC(Nc2nccn(Cc3ccc(C#N)cc3)c2=O)CC1` [5-20] were 5010 nM, 501 nM and 100 nM.
As to `C/C(=C\c1ccccc1)CN1CCC(Nc2nccn(CC(=O)Nc3ccc(F)cc3)c2=O)CC1` [1-42], the IC50 was 501 nM in experiment [1], 100 nM in experiment [2] and 3.98 nM in experiment [3].
On to `COCCCn1ccnc(N2CCN(C/C(C)=C/c3ccccc3)CC2)c1=O` [10-1], for which the IC50 was 7940 nM in experiment [1], 316 nM in experiment [2] and 79.4 nM in experiment [3].
For `C/C(=C\c1ccccc1)CN1CCN(c2nccn(CC(=O)C(C)(C)C)c2=O)CC1` [14-4], in that order: greater than 10000 nM, 398 nM and 63.1 nM.
Taken in the same sequence, the figures for `C/C(=C\c1ccccc1)CN1CCC(Nc2nccn(-c3ccc(NC(=O)c4cccc(F)c4)cc3)c2=O)CC1` [1-77] were 251 nM, 126 nM and 15.8 nM.
`C/C(=C\c1ccccc1)CN1CCC(Nc2nccn(Cc3ccccn3)c2=O)CC1` [6-13]: the IC50 is 3980 nM in experiment [1], 200 nM in experiment [2] and 31.6 nM in experiment [3].
For `C/C(=C\c1ccccc1)CN1CCC(Nc2nccn(Cc3ccc(NCCN(C)C)cc3)c2=O)CC1` [1-104], in that order: 200 nM, 12.6 nM and 2.51 nM.
On to `C/C(=C\c1ccccc1)CN1CCC(Nc2nccn(-c3ccc(C(=O)N4CCN(Cc5ccccc5)CC4)cc3)c2=O)CC1` [2-32], for which the IC50 in experiment [1] was 1260 nM; in experiment [2], 200 nM; in experiment [3] it was 12.6 nM.
For `C/C(=C\c1ccccc1)CN1CCC(Nc2nccn(Cc3ccc(CNS(=O)(=O)c4ccc(C#N)cc4)cc3)c2=O)CC1` [1-161], the IC50 in experiment [1] is 501 nM; in experiment [2], 100 nM; in experiment [3], 25.1 nM.
Taken in the same sequence, the figures for `CCCCN(Cc1ccccc1)C(=O)Cn1ccnc(NC2CCN(C/C(C)=C/c3ccccc3)CC2)c1=O` [1-66] were 794 nM, 79.4 nM and 12.6 nM.
Regarding `O=c1c(NC2CCN(C/C=C/c3ccccc3)CC2)nccn1CC1CCCCC1` [16-23], the IC50 in experiment [1] is 1260 nM; in experiment [2] it was 631 nM; in experiment [3] it was 316 nM.
For the compound `CCOC(=O)CCCCn1ccnc(NC2CCN(C/C(C)=C/c3ccccc3)CC2)c1=O` [3-17], the IC50 is 794 nM in experiment [1], 126 nM in experiment [2] and 15.8 nM in experiment [3].
For `C/C(=C\c1ccccc1)CN1CCC(Nc2nccn(-c3cccc(Nc4ccc(F)cc4)c3)c2=O)CC1` [1-43], in that order: 50.1 nM, 12.6 nM and 3.16 nM.
For `C/C(=C\c1ccccc1)CN1CCC(Nc2nccn(CCCN(CC(=O)c3ccccc3)Cc3ccccc3)c2=O)CC1` [1-90], in that order: 631 nM, 126 nM and 2 nM.
In the case of `C/C(=C\c1ccccc1)CN1CCC(N(C)c2nccn(CCN3CCCCC3)c2=O)CC1` [15-3], the IC50 is 5010 nM in experiment [1], 100 nM in experiment [2] and 20 nM in experiment [3].
For `C/C(=C\c1ccccc1)CN1CCC(Nc2nccn(Cc3ccccc3C)c2=O)CC1` [5-10], the IC50 in experiment [1] is 398 nM; in experiment [2], 79.4 nM; in experiment [3], 25.1 nM.
Turning to `C/C(=C\c1ccccc1)CN1CCC(Nc2nccn(CC(=O)N(C)C3CCCCC3)c2=O)CC1` [1-20], the IC50 in experiment [1] is 1000 nM; in experiment [2] it was 79.4 nM; in experiment [3], 3.98 nM.
On to `C/C(=C\c1ccccc1)CN1CCC(Nc2nccn(CC(=O)N3CCN(c4ccc(C)c(C)c4)CC3)c2=O)CC1` [2-29], for which the IC50 in experiment [1] is 100 nM; in experiment [2] it was 158 nM; in experiment [3], 31.6 nM.
Regarding `C/C(=C\c1ccccc1)CN1CCC(Nc2nccn(CN3C(=O)c4ccccc4C3=O)c2=O)CC1` [2-48], the IC50 in experiment [1] is 158 nM; in experiment [2], 31.6 nM; in experiment [3], 6.31 nM.
For `C/C(=C\c1ccccc1)CN1CCC(Nc2nccn(Cc3ccc(CN)cc3)c2=O)CC1` [1-7], the IC50 in experiment [1] is 794 nM; in experiment [2] it was 15.8 nM; in experiment [3], 3.16 nM.
As to `C/C(=C\c1ccccc1)CN1CCC(Nc2nccn(Cc3ccc(CNC(=O)C4CCCCC4)cc3)c2=O)CC1` [1-36], the IC50 in experiment [1] was 398 nM; in experiment [2] it was 158 nM; in experiment [3] it was 39.8 nM.
For `C/C(=C\c1ccccc1)CN1CCC(Nc2nccn(Cc3ccccc3C#N)c2=O)CC1` [5-19], in that order: 398 nM, 100 nM and 20 nM.
For `C/C(=C\c1ccccc1)CN1CCC(Nc2nccn(CC(=O)N(CCCN3CCCC3=O)Cc3ccc(F)cc3)c2=O)CC1` [1-139], in that order: 2510 nM, 200 nM and 3.16 nM.
Taken in the same sequence, the figures for `COCC(=O)NCc1ccc(Cn2ccnc(NC3CCN(C/C(C)=C/c4ccccc4)CC3)c2=O)cc1` [1-93] were 1260 nM, 158 nM and 50.1 nM.
`CC(C)(C)C(=O)Cn1ccnc(NC2CCN(C/C=C/c3ccccc3)CC2)c1=O` [16-25]: the IC50 was greater than 10000 nM in experiment [1], 1000 nM in experiment [2] and 158 nM in experiment [3].
In the case of `C/C(=C\c1ccccc1)CN1CCC(Nc2nccn(CCCN(C)C(=O)Nc3ccccc3)c2=O)CC1` [1-121], the IC50 was 794 nM in experiment [1], 158 nM in experiment [2] and 6.31 nM in experiment [3].
